Like-named read-outs stand apart in the source and are kept apart here.
Key:
Post-COVID patients [1] = experiment: Time to exhaustion, incremental treadmill test, creatine plus breathing exercise; assay type: in vivo, human; conditions: for Time to exhaustion: treadmill
Procedure: (§1) The time to exhaustion of the patients was evaluated by an incremental test until exhaustion on a motorized treadmill. Speed and gradient of the treadmill are increased every third minute, starting at 2.7 km/h (1.7 miles per hour) at a 10% gradient and rising at stage 7 to 9.7 km/h (6 miles per hour) at 22% gradient (Will P. M. and Walter J. D., Am Heart. J., 1999 December, 138, 1033).

[2] = both, human, in vivo, 3 months
PCFS patients [3] = experiment: Fatigue scores, Example 4; assay type: in vivo, human; design: key to General fatigue score / Physical fatigue score / Mental fatigue score / Reduced activity score / Reduced motivation score: MFI-20 multidimensional fatigue inventory subscale scores; conditions: for General fatigue score / Mental fatigue score / Physical fatigue score / Reduced activity score / Reduced motivation score: creatine 8 g per day or glucose 3 g per day
Procedure: The patient-reported outcomes for COVID-19-related signs and symptoms (e.g., breathing difficulties, lung pain, body aches,) were evaluated with VAS scale Table 3). Fatigue, comprising the conditions of the group general fatigue, physical fatigue, metal fatigue, reduced activity, and reduced motivation, was evaluated with a multidimensional fatigue inventory test (MFI-20 test, Smets E. M. et al., J. Psychosom. Res. 1995, 39(3), 315). […]

PCFS patients [4] = experiment: Patient-reported symptoms, VAS scale, Example 4; assay type: in vivo, human; conditions: for Body Aches (VAS scale) / Breathing difficulties (VAS scale) / Lung pain (VAS scale): creatine 8 g per day or glucose 3 g per day
Procedure: The patient-reported outcomes for COVID-19-related signs and symptoms (e.g., breathing difficulties, lung pain, body aches and post viral fatigue) were evaluated with VAS scale (Tables 10 and 11).
The Cohen's effect sizes (d) in the creatine group for all outcomes evaluated and reproduced in Table 12 and FIG. 2. The effects are classified as small (d=0.2), medium (d=0.5, dashed line), and large (d≥0.8). Missing values are due to a statistical limitation in calculating effect sizes when pre and/or post values equal zero. Abbreviations: GF, general fatigue; PF, physical fatigue; RM, reduced motivation; RA, reduced activity; MF, mental fatigue; BOA, body aches; BRD, breathing difficulties; LUP, lung pain; and MAL, malaise.

[5] = human, in vivo
Post-COVID patients [6] = experiment: Multidimensional fatigue inventory test (MFI-20), Example 2; assay type: in vivo, human; conditions: 4 g creatine monohydrate per day plus breathing exercise
Procedure: (§2) The patient-reported outcomes for COVID-19-related signs and symptoms (e.g., breathing difficulties, lung pain, body aches,) were evaluated with VAS scale Table 3). Fatigue, comprising the conditions of the group general fatigue, physical fatigue, metal fatigue, reduced activity, and reduced motivation, was evaluated with a multidimensional fatigue inventory test (MFI-20 test, Smets E. M. et al., J. Psychosom. Res. 1995, 39(3), 315).

Post-COVID patients [7] = experiment: Time to exhaustion, incremental treadmill test, creatine vs placebo; assay type: in vivo, human; conditions: creatine vs placebo study; for Time to exhaustion: treadmill
Procedure: as §1

Post-COVID patients [8] = experiment: Patient-reported symptoms, VAS scale, Example 2; assay type: in vivo, human; conditions: for Breathing difficulties (VAS scale) / Lung malaise (VAS scale) / Lung pain (VAS scale): 4 g creatine monohydrate per day plus breathing exercise
Procedure: as §2

Post-COVID patients [9] = experiment: Multidimensional fatigue inventory test (MFI-20), Example 1; assay type: in vivo, human; conditions: 4 g creatine monohydrate per day
Procedure: as §2
Thus, the higher the score, the higher the respective symptom is experienced by the interviewed patient. As a consequence, the lower the value given, the better is the effect in mitigation of the respective symptom.

[10] = normal healthy population after creatine supplementation; cited from earlier work
Post-COVID patients [11] = experiment: Side effects, Example 1; assay type: in vivo, human; conditions: 4 g creatine monohydrate per day
Procedure: The number of participants who were randomly assigned, received intended treatment, and were analyzed for the primary outcome at this time was twelve in total, six in experimental group and six in control group.

Post-COVID patients [12] = experiment: Side effects, Example 2; assay type: in vivo, human; conditions: 4 g creatine monohydrate per day plus breathing exercise, 3-month
Description: The changes in study outcomes during the trial are depicted in Table 5 and 6.

Post-COVID patients [13] = experiment: Patient-reported COVID-19-related symptoms, VAS scale, Example 1; assay type: in vivo, human; conditions: for Body Aches (VAS scale) / Breathing difficulties (VAS scale) / Lung pain (VAS scale): 4 g creatine monohydrate per day
Procedure: as §2

[14] = creatine group, 8 g per day, 8 weeks

SMILES: CN(CC(=O)O)C(=N)N.O [Creatine, creatine monohydrate]
- Cohen's effect size for time to exhaustion (Post-COVID patients [1]; creatine monohydrate plus breathing exercise): 0.36
- stage reached in the treadmill test (Post-COVID patients [1]; creatine plus breathing exercise study): 6
- Time to exhaustion (Post-COVID patients [1]; creatine plus breathing exercise study, 3-months): 921 s
- Time to exhaustion (Post-COVID patients [1]; creatine plus breathing exercise study, Baseline): 867 s
- mean time to exhaustion improved (Post-COVID patients [1]; experimental group, post-administration (3 months)): 54 s
- Cohen's effect size (d) for creatine increment, vastus medialis muscle [2]: 0.77
- General fatigue score (PCFS patients [3]; 8 weeks): 12.0
- Mental fatigue score (PCFS patients [3]; 8 weeks): 12.2
- Physical fatigue score (PCFS patients [3]; 8 weeks): 11.4
- Reduced activity score (PCFS patients [3]; 8 weeks): 12.0
- Reduced motivation score (PCFS patients [3]; 8 weeks): 10.3
- General fatigue score (PCFS patients [3]; Baseline): 12.6
- Mental fatigue score (PCFS patients [3]; Baseline): 13.4
- Physical fatigue score (PCFS patients [3]; Baseline): 12.2
- Reduced activity score (PCFS patients [3]; Baseline): 13.6
- Reduced motivation score (PCFS patients [3]; Baseline): 11.6
- Cohen's effect (d), General Fatigue (PCFS patients [3]; [14]): 0.44
- Cohen's effect (d), Physical Fatigue (PF) (PCFS patients [3]; [14]): 0.83
- Cohen's effect size (d) for reducing body aches (PCFS patients [4]; 8-week follow-up): > 0.80
- Cohen's effect size (d) for reducing breathing difficulties (PCFS patients [4]; 8-week follow-up): > 0.80
- Cohen's effect size (d) for reducing lung malaise (PCFS patients [4]; 8-week follow-up): > 0.80
- Body aches reduced (PCFS patients [4]; after 8 weeks): 71%
- Lung pain reduced (PCFS patients [4]; after 8 weeks): 67%
- breathing difficulties (dyspnea) reduced (PCFS patients [4]; after 8 weeks): 85%
- Body Aches (VAS scale) (PCFS patients [4]; 8 weeks): 0.8
- Breathing difficulties (VAS scale) (PCFS patients [4]; 8 weeks): 0.4
- Lung pain (VAS scale) (PCFS patients [4]; 8 weeks): 0.6
- Body Aches (VAS scale) (PCFS patients [4]; Baseline): 2.8
- Breathing difficulties (VAS scale) (PCFS patients [4]; Baseline): 2.6
- Lung pain (VAS scale) (PCFS patients [4]; Baseline): 1.8
- Cohen's effect (d), Body aches (BOA) (PCFS patients [4]; [14]): 1.11
- Cohen's effect (d), Lung pain (LUP) (PCFS patients [4]; [14]): 0.64
- Total creatine, Left paracentral grey matter [5]: 6.7 ± 0.6 mM
- Total creatine, Right paracentral grey matter [5]: 6.8 ± 0.4 mM
- Cohen's effect size (d), increased brain creatine level in left parietal white matter ([5]; 3 months): 0.92
- Cohen's effect size (d), increased brain creatine level in parietal white matter ([5]; 3 months): 1.99
- Cohen's effect size (d), increased brain creatine level in right frontal white matter ([5]; 3 months): 1.25
- Cohen's effect size (d), increased brain creatine level in right paracentral grey matter ([5]; 3 months): 0.88
- Cohen's effect size (d), increased brain creatine level in right parietal messial grey matter ([5]; 3 months): 1.17
- Cohen's effect size (d), increased brain creatine level in thalamus ([5]; 3 months): 0.82
- Total creatine, Left paracentral grey matter ([5]; 3 months): 7.3 ± 0.9 mM
- Total creatine, Right paracentral grey matter ([5]; 3 months): 7.2 ± 0.5 mM
- Cohen's effect size (d), increased brain creatine level in left parietal messial grey matter ([5]; 6 months): 0.84
- Cohen's effect size (d), increased brain creatine level in left parietal white matter ([5]; 6 months): 1.17
- Cohen's effect size (d), increased brain creatine level in parietal white matter ([5]; 6 months): 1.74
- Cohen's effect size (d), increased brain creatine level in right frontal white matter ([5]; 6 months): 1.32
- Cohen's effect size (d), increased brain creatine level in right parietal messial grey matter ([5]; 6 months): 1.06
- Total creatine, Left paracentral grey matter ([5]; 6 months): 7.1 ± 0.7 mM
- Total creatine, Right paracentral grey matter ([5]; 6 months): 7.0 ± 0.7 mM
- General fatigue score (Post-COVID patients [6]; 3 months): 12.3
- Mental fatigue score (Post-COVID patients [6]; 3 months): 11.5
- Physical fatigue score (Post-COVID patients [6]; 3 months): 12.2
- Reduced activity score (Post-COVID patients [6]; 3 months): 12.8
- Reduced motivation score (Post-COVID patients [6]; 3 months): 12.8
- General fatigue score (Post-COVID patients [6]; Baseline): 11.5
- Mental fatigue score (Post-COVID patients [6]; Baseline): 11.8
- Physical fatigue score (Post-COVID patients [6]; Baseline): 12.3
- Reduced activity score (Post-COVID patients [6]; Baseline): 12.5
- Reduced motivation score (Post-COVID patients [6]; Baseline): 13.5
- stage achieved in the treadmill test (Post-COVID patients [7]): 6
- time to exhaustion increased (Post-COVID patients [7]; matches 6-months vs baseline of Table 7): 7.3%
- Time to exhaustion (Post-COVID patients [7]; 3-months): 922 s
- Time to exhaustion (Post-COVID patients [7]; 6-months): 959 s
- Time to exhaustion (Post-COVID patients [7]; Baseline): 894 s
- Cohen's effect size for lung malaise (Post-COVID patients [8]; 3-month follow up): 2.97
- Breathing difficulties (VAS scale) (Post-COVID patients [8]; 3 months): 0.0
- Lung malaise (VAS scale) (Post-COVID patients [8]; 3 months): 1.0
- Lung pain (VAS scale) (Post-COVID patients [8]; 3 months): 0.0
- Breathing difficulties (VAS scale) (Post-COVID patients [8]; Baseline): 1.5
- Lung malaise (VAS scale) (Post-COVID patients [8]; Baseline): 6.3
- Lung pain (VAS scale) (Post-COVID patients [8]; Baseline): 0.5
- lung malaise reduced (Post-COVID patients [8]; creatine plus breathing exercise, 3-month follow up): 84%
- General fatigue score (Post-COVID patients [9]; 3 months): 11.3
- Mental fatigue score (Post-COVID patients [9]; 3 months): 11.2
- Physical fatigue score (Post-COVID patients [9]; 3 months): 12.7
- Reduced activity score (Post-COVID patients [9]; 3 months): 12.0
- Reduced motivation score (Post-COVID patients [9]; 3 months): 13.0
- General fatigue score (Post-COVID patients [9]; 6 months): 12.7
- Mental fatigue score (Post-COVID patients [9]; 6 months): 10.5
- Physical fatigue score (Post-COVID patients [9]; 6 months): 13.2
- Reduced activity score (Post-COVID patients [9]; 6 months): 12.5
- Reduced motivation score (Post-COVID patients [9]; 6 months): 12.5
- General fatigue score (Post-COVID patients [9]; Baseline): 12.0
- Mental fatigue score (Post-COVID patients [9]; Baseline): 12.3
- Physical fatigue score (Post-COVID patients [9]; Baseline): 13.5
- Reduced activity score (Post-COVID patients [9]; Baseline): 11.5
- Reduced motivation score (Post-COVID patients [9]; Baseline): 13.0
- increase of creatine in the brain [10]: ≤ 5%
- side effects (Post-COVID patients [11]): no major side effects
- side effects / tolerability (Post-COVID patients [12]): well-tolerated
- Body Aches (VAS scale) (Post-COVID patients [13]; 3 months): 1.2
- Breathing difficulties (VAS scale) (Post-COVID patients [13]; 3 months): 0.5
- Lung pain (VAS scale) (Post-COVID patients [13]; 3 months): 0.5
- Body Aches (VAS scale) (Post-COVID patients [13]; 6-months): 0.0
- Breathing difficulties (VAS scale) (Post-COVID patients [13]; 6-months): 0.0
- Lung pain (VAS scale) (Post-COVID patients [13]; 6-months): 0.0
- Body Aches (VAS scale) (Post-COVID patients [13]; Baseline): 4.5
- Breathing difficulties (VAS scale) (Post-COVID patients [13]; Baseline): 2.3
- Lung pain (VAS scale) (Post-COVID patients [13]; Baseline): 2.3
- Body aches reduced (Post-COVID patients [13]; after 3 months): 73.3%
- Lung pain (Post-COVID patients [13]; after 3 months): reduced significantly
- breathing difficulties (dyspnea) reduced (Post-COVID patients [13]; after 3 months): 78%
- Cohen's effect size (d), body aches (Post-COVID patients [13]; at 3-month): 1.77
- Cohen's effect size (d), breathing difficulties (Post-COVID patients [13]; at 3-month): 0.89
- Cohen's effect size (d), body aches (Post-COVID patients [13]; at 6-month): 3.03
- Cohen's effect size (d), breathing difficulties (Post-COVID patients [13]; at 6-month): 1.25
- Cohen's effect size (d), lung pain (Post-COVID patients [13]; at 6-month): 0.99

From patent US20250325505A1, “COMPOSITION COMPRISING CREATINE FOR USE IN THE TREATMENT OF BREATHING DIFFICULTIES” (Alzchem Trostberg GmbH, priority 2022, published 2025)
